Test results published in publication PMC12615753, “Glutathione as a taste modulator: molecular mechanisms of interaction with umami and sweet taste receptors” (Food Chemistry: Molecular Sciences, 2025).

What was measured:
TAS1R1/TAS1R3 = conditions: ref Broadhead et al., 2011; Servant & Frerot, 2022; cited from earlier work
hTAS1R1 E301A/rTAS1R3 = target: T1, hTAS1R1 E301A/rTAS1R3 (UniProt Q7RTX1+Q923K1, E301A); test: cell-based; type: cell-based, human, rat; conditions: for response to the agonist alone, vs WT: E301A
T1 construct: UniProtKB number Q7RTX1–1); The cDNA coding region of rTAS1R3 was synthesized with optimized-codon usage for human expression; expressed in transfected cells; host or cells: HEK293T/17
T1 sequence (Q7RTX1 21-841 E301A): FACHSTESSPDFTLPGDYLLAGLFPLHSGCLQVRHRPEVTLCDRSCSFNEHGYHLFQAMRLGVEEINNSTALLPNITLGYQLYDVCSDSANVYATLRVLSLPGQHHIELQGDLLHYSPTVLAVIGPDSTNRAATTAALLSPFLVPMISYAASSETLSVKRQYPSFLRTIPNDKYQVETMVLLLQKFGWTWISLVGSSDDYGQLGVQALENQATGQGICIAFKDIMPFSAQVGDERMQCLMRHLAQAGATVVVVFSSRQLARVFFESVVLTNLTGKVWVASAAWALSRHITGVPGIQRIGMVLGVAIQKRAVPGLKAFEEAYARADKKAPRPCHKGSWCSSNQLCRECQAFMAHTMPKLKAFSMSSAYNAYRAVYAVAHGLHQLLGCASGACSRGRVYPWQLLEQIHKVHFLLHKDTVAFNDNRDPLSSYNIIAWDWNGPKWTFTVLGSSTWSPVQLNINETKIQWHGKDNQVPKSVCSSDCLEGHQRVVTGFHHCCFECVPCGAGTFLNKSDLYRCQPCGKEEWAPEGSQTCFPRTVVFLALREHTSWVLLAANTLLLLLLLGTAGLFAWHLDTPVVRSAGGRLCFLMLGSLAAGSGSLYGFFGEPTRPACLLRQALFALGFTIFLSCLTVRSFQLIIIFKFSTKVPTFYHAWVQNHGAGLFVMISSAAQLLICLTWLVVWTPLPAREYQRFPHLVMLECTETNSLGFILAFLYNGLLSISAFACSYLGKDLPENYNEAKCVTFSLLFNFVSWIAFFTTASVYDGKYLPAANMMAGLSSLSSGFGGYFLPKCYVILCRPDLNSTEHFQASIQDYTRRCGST
T1 sequence (Q923K1 21-858): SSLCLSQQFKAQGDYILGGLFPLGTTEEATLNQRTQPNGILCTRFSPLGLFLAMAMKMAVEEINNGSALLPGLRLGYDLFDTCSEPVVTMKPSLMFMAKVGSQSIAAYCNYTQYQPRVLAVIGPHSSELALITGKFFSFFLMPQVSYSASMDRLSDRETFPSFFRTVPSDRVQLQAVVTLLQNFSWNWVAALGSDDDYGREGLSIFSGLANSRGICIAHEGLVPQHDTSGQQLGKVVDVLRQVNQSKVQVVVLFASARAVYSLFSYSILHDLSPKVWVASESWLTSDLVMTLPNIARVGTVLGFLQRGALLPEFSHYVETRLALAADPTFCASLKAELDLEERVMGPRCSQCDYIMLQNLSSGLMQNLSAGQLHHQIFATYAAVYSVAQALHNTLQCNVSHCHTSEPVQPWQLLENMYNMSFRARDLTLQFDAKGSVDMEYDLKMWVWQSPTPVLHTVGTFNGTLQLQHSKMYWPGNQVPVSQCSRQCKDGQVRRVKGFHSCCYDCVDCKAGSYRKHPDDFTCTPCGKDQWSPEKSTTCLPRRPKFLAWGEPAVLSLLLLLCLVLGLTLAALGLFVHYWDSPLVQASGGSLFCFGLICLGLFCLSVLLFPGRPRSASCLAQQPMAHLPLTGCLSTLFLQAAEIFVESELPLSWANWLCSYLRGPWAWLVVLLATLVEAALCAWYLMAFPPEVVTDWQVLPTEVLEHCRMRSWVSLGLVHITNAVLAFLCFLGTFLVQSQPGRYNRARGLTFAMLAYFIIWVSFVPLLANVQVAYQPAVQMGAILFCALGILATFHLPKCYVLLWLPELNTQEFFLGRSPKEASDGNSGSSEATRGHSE
Excerpt: Chimeric Gα proteins, such as Gα16Gust44, Gα16Gi3 or Gα15i2, are widely used in the functional expression of TAS1R receptors ([Backes et al., 2015]; [Suess et al., 2015]; [Toda et al., 2021], [Toda et al., 2013], [Toda et al., 2018]; [Zhang et al., 2008]). Chimeric Gα15i2 (([Toda et al., 2013]), Supplementary data) was generated by replacing the last five residues of the C-terminal tail of rat Gα15i2 (EINLL) (UniProt number G3V6N8; https://www.uniprot.org/uniprot/) with the counterpart sequence from human GNAI2 (DCGLF) (UniProt number P04899-1) and cloning into the pcDNA3.1/Hygro vector (Invitrogen, Thermo Fisher Scientific, Illkirch, France) between the HindIII and NotI restriction sites, resulting in the plasmid pcDNA3.1-Gα15i2. Chimeric Gα16Gust44 construct have already been reported ([Raliou et al., 2011]). Briefly, Gα16Gust44 was generated by replacing the C-terminal of Gα16 with the C-terminal 44 residues of gustducin. As previously described, hTAS1R1 was amplified from human fungiform papillae cDNA and cloned and inserted into pcDNA3 (Invitrogen), generating pcDNA3-TAS1R1-WT (wild-type) ([Raliou et al., 2011]). […] The cDNA coding region of rTAS1R3 was synthesized with optimized-codon usage for human expression (Genewiz) and was cloned and inserted into the mammalian pcDNA4/myc-HisA (Invitrogen) expression vector between the EcoRI and NotI restriction sites, resulting in the plasmid pcDNA4-rTAS1R3. […] The sequence integrity of all the plasmid constructs was verified via automated DNA sequencing (Genewiz).
The hTAS1R1 mutants were co-expressed with the rTAS1R3 subunit in HEK293 cells. […] As a control, the functionality of the mutated receptors was checked after stimulation with S807 (Fig. S8), which interacts with TAS1R1-TMD ([Zhang et al., 2008]).

[1] = target: T2, hTAS1R1/hTAS1R3(r570–858) (Homo sapiens, UniProt Q7RTX1); test: Calcium assay, chimeric TAS1R3 co-expressed with hTAS1R1; type: cell-based, rat; conditions: data not shown
T2 construct: UniProtKB number Q7RTX1–1); expressed in transfected cells; host or cells: HEK293T/17 (inferred from the general method)
T2 sequence (Q7RTX1 21-841): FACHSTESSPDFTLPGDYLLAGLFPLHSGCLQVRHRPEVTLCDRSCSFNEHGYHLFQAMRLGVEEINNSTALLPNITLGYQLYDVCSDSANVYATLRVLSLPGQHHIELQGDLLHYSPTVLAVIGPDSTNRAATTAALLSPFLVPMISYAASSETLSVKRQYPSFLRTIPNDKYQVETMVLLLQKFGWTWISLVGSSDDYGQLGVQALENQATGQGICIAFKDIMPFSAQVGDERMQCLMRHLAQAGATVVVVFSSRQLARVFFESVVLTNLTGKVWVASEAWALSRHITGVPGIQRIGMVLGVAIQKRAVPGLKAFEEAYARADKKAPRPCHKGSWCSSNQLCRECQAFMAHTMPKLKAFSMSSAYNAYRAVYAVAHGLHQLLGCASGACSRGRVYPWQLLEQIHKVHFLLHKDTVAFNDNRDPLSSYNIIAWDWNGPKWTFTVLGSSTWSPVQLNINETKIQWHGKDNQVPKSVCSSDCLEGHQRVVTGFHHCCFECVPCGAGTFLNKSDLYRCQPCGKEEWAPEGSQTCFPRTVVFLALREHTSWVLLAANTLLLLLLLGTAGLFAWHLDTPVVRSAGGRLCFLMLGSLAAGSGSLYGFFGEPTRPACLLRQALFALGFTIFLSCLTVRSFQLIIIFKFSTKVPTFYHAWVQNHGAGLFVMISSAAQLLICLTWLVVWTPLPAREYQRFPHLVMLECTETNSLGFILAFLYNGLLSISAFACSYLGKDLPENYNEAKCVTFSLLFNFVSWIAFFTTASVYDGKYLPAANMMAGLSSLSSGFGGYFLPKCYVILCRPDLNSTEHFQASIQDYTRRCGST
Excerpt: (§1) Chimeric Gα proteins, such as Gα16Gust44, Gα16Gi3 or Gα15i2, are widely used in the functional expression of TAS1R receptors ([Backes et al., 2015]; [Suess et al., 2015]; [Toda et al., 2021], [Toda et al., 2013], [Toda et al., 2018]; [Zhang et al., 2008]). Chimeric Gα15i2 (([Toda et al., 2013]), Supplementary data) was generated by replacing the last five residues of the C-terminal tail of rat Gα15i2 (EINLL) (UniProt number G3V6N8; https://www.uniprot.org/uniprot/) with the counterpart sequence from human GNAI2 (DCGLF) (UniProt number P04899-1) and cloning into the pcDNA3.1/Hygro vector (Invitrogen, Thermo Fisher Scientific, Illkirch, France) between the HindIII and NotI restriction sites, resulting in the plasmid pcDNA3.1-Gα15i2. Chimeric Gα16Gust44 construct have already been reported ([Raliou et al., 2011]). Briefly, Gα16Gust44 was generated by replacing the C-terminal of Gα16 with the C-terminal 44 residues of gustducin. As previously described, hTAS1R1 was amplified from human fungiform papillae cDNA and cloned and inserted into pcDNA3 (Invitrogen), generating pcDNA3-TAS1R1-WT (wild-type) ([Raliou et al., 2011]). […]

hTAS1R1/hTAS1R3(r1–575) = target: T3, hTAS1R1/hTAS1R3(r1–575) (Homo sapiens, UniProt Q7RTX1); test: as above; type: cell-based, rat; conditions: data not shown
T3 construct: UniProtKB number Q7RTX1–1); expressed in transfected cells; host or cells: HEK293T/17 (inferred from the general method)
T3 sequence (Q7RTX1 21-841): as above
Excerpt: as §1

SMILES	EC50 (TAS1R1/TAS1R3) [mM]	EC50 (hTAS1R1 E301A/rTAS1R3) [mM]	response to the agonist alone, vs WT (hTAS1R1 E301A/rTAS1R3)	response of the receptor [1]	response of the receptor (hTAS1R1/hTAS1R3(r1–575))
N[C@@H](CCC(=O)N[C@@H](CS)C(=O)NCC(=O)O)C(=O)O [GSH, γ-L-glutamyl-L-cysteinyl-glycine]	11.3	> 30	fully abolished	–	–
N[C@@H](CCC(=O)O)C(=O)O [L-Glu, L-glutamic acid, reference compound]	–	–	completely suppressed	did not respond	did not respond
